Laboratory results taken from patent US20230159510A1, “NOVEL PRMT5 INHIBITORS” (AMGEN INC., priority 2020, published 2023).
Read-outs that look alike come from different tables or passages of the source.

Tests used:
HCT116 MTAP null cells = assay: HCT116 proliferation assay, MTAP null cells (CellTiter-Glo, 6 days); type: cell-based; details: 144 h, read-out: Protif_ HCT116-MTAP null IC50
How it was run: (§1)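 Cells grown in RPMI 1640 + 10% FBS, plated overnight, then exposed for 6 days to 8- or 9-point 1:3 compound dilutions (top 1 or 10 µM) with DMSO control. Viability read by CellTiter-Glo luminescence.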

HCT116 WT cells = assay: HCT116 proliferation assay, WT cells (CellTiter-Glo, 6 days); type: cell-based; details: Homo sapiens, HCT-116, 144 h, read-out: Prolif_HCT116-WT IC50
How it was run: as §1

PRMT5/MEP50 = PRMT5/MEP50 (Homo sapiens, UniProt O14744); assay: MTase-Glo methyl transferase assay, Method A (Histone H4 peptide, 1 µM MTA, 24 h pre-incubation); type: biochemical; design: made in house; details: read-out: PRMT5 MTase Glo Ki (nM, Meth. A)
How it was run: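 PRMT5/MEP50 (10 nM) pre-incubated 24 h with compound, 5 µM SAM and 1 µM MTA, then reaction started with 1 µM Histone H4 (1-21) peptide and run 2 h at room temperature in Tris pH 8.0 buffer. SAH formed detected by MTase-Glo luminescence; IC50 and KI from dose-response curves.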

PRMT5/MEP50, sequence (O14744 whole entry): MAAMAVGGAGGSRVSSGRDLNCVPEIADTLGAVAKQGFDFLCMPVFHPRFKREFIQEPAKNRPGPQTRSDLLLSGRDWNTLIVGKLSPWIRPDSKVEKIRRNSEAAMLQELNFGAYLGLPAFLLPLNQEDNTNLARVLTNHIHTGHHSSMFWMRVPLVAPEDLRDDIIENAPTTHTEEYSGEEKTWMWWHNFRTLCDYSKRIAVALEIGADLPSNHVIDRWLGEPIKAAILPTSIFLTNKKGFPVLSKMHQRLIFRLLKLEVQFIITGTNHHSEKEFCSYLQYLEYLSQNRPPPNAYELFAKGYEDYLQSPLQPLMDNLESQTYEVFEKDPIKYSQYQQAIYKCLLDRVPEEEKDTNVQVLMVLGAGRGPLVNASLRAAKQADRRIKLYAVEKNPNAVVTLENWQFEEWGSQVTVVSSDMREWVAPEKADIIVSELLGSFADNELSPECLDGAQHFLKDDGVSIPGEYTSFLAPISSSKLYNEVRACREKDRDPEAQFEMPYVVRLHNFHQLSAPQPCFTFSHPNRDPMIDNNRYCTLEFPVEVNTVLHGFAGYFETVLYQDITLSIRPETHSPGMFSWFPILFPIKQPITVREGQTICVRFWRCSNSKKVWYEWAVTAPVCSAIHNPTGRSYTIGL
PRMT5/MEP50, sequence (Q9BQA1 whole entry partner): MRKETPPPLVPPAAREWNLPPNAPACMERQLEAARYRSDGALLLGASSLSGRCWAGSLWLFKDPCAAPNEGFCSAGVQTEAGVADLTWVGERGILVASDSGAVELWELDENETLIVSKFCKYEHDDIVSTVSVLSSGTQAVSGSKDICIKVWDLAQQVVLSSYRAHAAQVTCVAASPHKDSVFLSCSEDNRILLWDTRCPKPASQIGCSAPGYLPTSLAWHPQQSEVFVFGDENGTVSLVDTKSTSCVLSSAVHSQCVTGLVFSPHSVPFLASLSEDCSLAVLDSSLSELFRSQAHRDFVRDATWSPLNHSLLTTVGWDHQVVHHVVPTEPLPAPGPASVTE

IC50 (HCT116 MTAP null cells; HCT116-MTAP null) | IC50 (HCT116 WT cells) | Ki (PRMT5/MEP50) | SMILES | IC50 (HCT116 MTAP null cells)
79 nM | 1670 nM | 0.27 nM | Cc1cc2cc(C(=O)N(Cc3ccc(C(F)F)nn3)[C@H](C)c3ncccn3)ccc2nc1N [Example 380, 2-amino-N-((6-(difluoromethyl)-3-pyridazinyl)methyl)-3-methyl-N-((1R)-1-(2-pyrimidinyl)ethyl)-6-quinolinecarboxamide] | –
194 nM | 8970 nM | 0.33 nM | C[C@H](c1ncccn1)N(Cc1ccc(C(F)F)cn1)C(=O)c1ccc2nc(N)c(Cl)cc2c1 [Example 381, 2-amino-3-chloro-N-((5-(difluoromethyl)-2-pyridinyl)methyl)-N-((1R)-1-(2-pyrimidinyl)ethyl)-6-quinolinecarboxamide] | –
278 nM | 9680 nM | 0.16 nM | CCOc1ccc(CN(C(=O)c2cnc3nc(N)c(Br)cc3c2)[C@H](C)c2ncccn2)nn1 [Example 382, 7-amino-6-bromo-N-((6-ethoxy-3-pyridazinyl)methyl)-N-((1R)-1-(2-pyrimidinyl)ethyl)-1,8-naphthyridine-3-carboxamide] | –
434 nM | 5320 nM | 2.06 nM | Cc1cc2cc(C(=O)N(Cc3ccc(F)cn3)Cc3ccc(C(F)(F)F)cn3)ccc2nc1N [Example 383, 2-amino-N-((5-fluoro-2-pyridinyl)methyl)-3-methyl-N-((5-(trifluoromethyl)-2-pyridinyl)methyl)-6-quinolinecarboxamide] | –
177 nM | 5100 nM | 0.01 nM | Cc1cc2cc(C(=O)N(Cc3ccc(C(F)(F)F)cn3)Cc3ncc(F)cc3F)ccc2nc1N [Example 384, 2-amino-N-((3,5-difluoro-2-pyridinyl)methyl)-3-methyl-N-((5-(trifluoromethyl)-2-pyridinyl)methyl)-6-quinolinecarboxamide] | –
884 nM | > 10000 nM | 1.67 nM | Cc1cc2cc(C(=O)N(Cc3ncccc3F)Cc3ncc(F)cc3F)ccc2nc1N [Example 387, 2-amino-N-((3,5-difluoro-2-pyridinyl)methyl)-N-((3-fluoro-2-pyridinyl)methyl)-3-methyl-6-quinolinecarboxamide] | –
137 nM | 4880 nM | 0.15 nM | C[C@H](c1ncccc1F)N(Cc1ccc(C(F)(F)F)cn1)C(=O)c1cnc2nc(N)c(Br)cc2c1 [Example 388, 7-amino-6-bromo-N-((1R)-1-(3-fluoro-2-pyridinyl)ethyl)-N-((5-(trifluoromethyl)-2-pyridinyl)methyl)-1,8-naphthyridine-3-carboxamide] | –
198 nM | > 10000 nM | 0.37 nM | Cc1cc2cc(C(=O)N(Cc3ccc(C(F)(F)F)cn3)[C@H](C)c3ncccc3F)cnc2nc1N [Example 389, 7-amino-N-((1R)-1-(3-fluoro-2-pyridinyl)ethyl)-6-methyl-N-((5-(trifluoromethyl)-2-pyridinyl)methyl)-1,8-naphthyridine-3-carboxamide] | –
23 nM | 460 nM | 0.25 nM | Cc1cc2cc(C(=O)N(Cc3ccc(C(F)(F)F)cn3)[C@@H]3CCCc4cccnc43)ccc2nc1N [Example 390, 2-amino-3-methyl-N-((8R)-5,6,7,8-tetrahydro-8-quinolinyl)-N-((5-(trifluoromethyl)-2-pyridinyl)methyl)-6-quinolinecarboxamide] | –
165 nM | 4800 nM | 0.01 nM | Cc1cc2cc(C(=O)N(Cc3ncc(C(F)(F)F)cc3F)[C@H](C)c3ncccc3F)ccc2nc1N [Example 391, 2-amino-N-((1R)-1-(3-fluoro-2-pyridinyl)ethyl)-N-((3-fluoro-5-(trifluoromethyl)-2-pyridinyl)methyl)-3-methyl-6-quinolinecarboxamide] | –
193 nM | 6860 nM | 0.5 nM | Cc1cc([C@@H](C)N(Cc2ccc(C(F)(F)F)cn2)C(=O)c2ccc3nc(N)c(C)cc3c2)no1 [Example 392, 2-amino-3-methyl-N-((1R)-1-(5-methyl-1,2-oxazol-3-yl)ethyl)-N-((5-(trifluoromethyl)-2-pyridinyl)methyl)-6-quinolinecarboxamide] | –
342 nM | 8210 nM | 0.22 nM | Cc1cc2cc(C(=O)N(Cc3ncccc3F)[C@H](C)c3ccc(C(F)(F)F)cn3)ccc2nc1N [Example 393, 2-amino-N-((3-fluoro-2-pyridinyl)methyl)-3-methyl-N-((1R)-1-(5-(trifluoromethyl)-2-pyridinyl)ethyl)-6-quinolinecarboxamide] | –
384 nM | > 10000 nM | 0.12 nM | Cc1cc2cc(C(=O)N(Cc3ccc(Br)cn3)[C@H](C)c3ncccc3Cl)ccc2nc1N [Example 394, 2-amino-N-((5-bromo-2-pyridinyl)methyl)-N-((1R)-1-(3-chloro-2-pyridinyl)ethyl)-3-methyl-6-quinolinecarboxamide] | –
82 nM | 2370 nM | 0.16 nM | Cc1cc2cc(C(=O)N(Cc3ccc(C(F)(F)F)nn3)[C@@H]3CCc4cccnc43)ccc2nc1N [Example 395, 2-amino-N-((7R)-6,7-dihydro-5H-cyclopenta[b]pyridin-7-yl)-3-methyl-N-((6-(trifluoromethyl)-3-pyridazinyl)methyl)-6-quinolinecarboxamide] | –
793 nM | > 10000 nM | 0.27 nM | Cc1cc2cc(C(=O)N(Cc3ncc(C(F)(F)F)cc3Cl)[C@H](C)c3ncccc3F)ccc2nc1N [Example 396, 2-amino-N-((3-chloro-5-(trifluoromethyl)-2-pyridinyl)methyl)-N-((1R)-1-(3-fluoro-2-pyridinyl)ethyl)-3-methyl-6-quinolinecarboxamide] | –
286 nM | 7960 nM | 0.23 nM | C[C@H](c1ncccc1F)N(Cc1ccc(C(F)(F)F)nn1)C(=O)c1cnc2nc(N)c(Br)cc2c1 [Example 397, 7-amino-6-bromo-N-((1R)-1-(3-fluoro-2-pyridinyl)ethyl)-N-((6-(trifluoromethyl)-3-pyridazinyl)methyl)-1,8-naphthyridine-3-carboxamide] | –
41 nM | 960 nM | 0.05 nM | Cc1cc2cc(C(=O)N(Cc3ccc(Br)cn3)[C@H](C)c3ncccc3F)ccc2nc1N [Example 400, 2-amino-N-((5-bromo-2-pyridinyl)methyl)-N-((1R)-1-(3-fluoro-2-pyridinyl)ethyl)-3-methyl-6-quinolinecarboxamide] | –
51 nM | 1570 nM | 0.08 nM | Cc1cc2cc(C(=O)N(Cc3ccc(Cl)cn3)[C@H](C)c3ncccc3F)ccc2nc1N [Example 401, 2-amino-N-((5-chloro-2-pyridinyl)methyl)-N-((1R)-1-(3-fluoro-2-pyridinyl)ethyl)-3-methyl-6-quinolinecarboxamide] | –

SMILES | IC50 (HCT116 MTAP null cells; HCT116-MTAP null) | IC50 (HCT116 WT cells) | Ki (PRMT5/MEP50) | IC50 (HCT116 MTAP null cells)
Cc1cc2cc(C(=O)N(Cc3ccc(C(F)(F)F)cn3)[C@H](C)c3ncccc3F)ccc2nc1N [Example 385, 2-amino-N-((1R)-1-(3-fluoro-2-pyridinyl)ethyl)-3-methyl-N-((5-(trifluoromethyl)-2-pyridinyl)methyl)-6-quinolinecarboxamide] | – | 1310 nM | 0.08 nM | 55 nM
Cc1cc2cc(C(=O)N(Cc3ccc(C(F)(F)F)cn3)[C@@H](C)c3ncccc3F)ccc2nc1N [Example 386, 2-amino-N-((1S)-1-(3-fluoro-2-pyridinyl)ethyl)-3-methyl-N-((5-(trifluoromethyl)-2-pyridinyl)methyl)-6-quinolinecarboxamide] | – | 3830 nM | 3.46 nM | 241 nM
